Measurements taken from ChEMBL document CHEMBL1201862, “PubChem BioAssay data set” (2004).
The source made the active and inactive calls.

Columns and labels:
14-3-3 protein gamma = 14-3-3 protein gamma (Homo sapiens, UniProt P61981); assay: modulators of 14-3-3 gamma client binding – dose response (AID 711); format: functional
[1] = target: T1, Tyrosyl-DNA phosphodiesterase 2 (Homo sapiens, UniProt O95551); assay: potency against TDP2 phosphodiesterase activity – biochemical, epi absorbance, IC50, dose response (AID 743297)
T1 sequence (O95551 whole entry): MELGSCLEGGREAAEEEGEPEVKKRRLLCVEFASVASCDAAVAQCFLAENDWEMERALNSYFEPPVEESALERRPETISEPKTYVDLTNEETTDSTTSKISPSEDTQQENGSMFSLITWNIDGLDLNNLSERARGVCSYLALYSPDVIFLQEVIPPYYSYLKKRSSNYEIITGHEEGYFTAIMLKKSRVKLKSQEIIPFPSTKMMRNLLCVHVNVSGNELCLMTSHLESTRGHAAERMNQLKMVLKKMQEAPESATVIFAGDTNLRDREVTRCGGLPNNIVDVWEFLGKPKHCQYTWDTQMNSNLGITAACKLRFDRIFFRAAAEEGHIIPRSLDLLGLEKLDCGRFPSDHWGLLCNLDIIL

Protein RecA = target: T2, Protein RecA (Mycobacterium tuberculosis, UniProt P9WHJ3); assay: Fluorescence Cell-Free Homogeneous Dose Retest to Identify Inhibitors of RecA-Intein Splicing Activity. [Related pubchem assays (depositor defined):AID2097, AID2223, AID489010, AID492950]; format: functional
T2 sequence (P9WHJ3 whole entry): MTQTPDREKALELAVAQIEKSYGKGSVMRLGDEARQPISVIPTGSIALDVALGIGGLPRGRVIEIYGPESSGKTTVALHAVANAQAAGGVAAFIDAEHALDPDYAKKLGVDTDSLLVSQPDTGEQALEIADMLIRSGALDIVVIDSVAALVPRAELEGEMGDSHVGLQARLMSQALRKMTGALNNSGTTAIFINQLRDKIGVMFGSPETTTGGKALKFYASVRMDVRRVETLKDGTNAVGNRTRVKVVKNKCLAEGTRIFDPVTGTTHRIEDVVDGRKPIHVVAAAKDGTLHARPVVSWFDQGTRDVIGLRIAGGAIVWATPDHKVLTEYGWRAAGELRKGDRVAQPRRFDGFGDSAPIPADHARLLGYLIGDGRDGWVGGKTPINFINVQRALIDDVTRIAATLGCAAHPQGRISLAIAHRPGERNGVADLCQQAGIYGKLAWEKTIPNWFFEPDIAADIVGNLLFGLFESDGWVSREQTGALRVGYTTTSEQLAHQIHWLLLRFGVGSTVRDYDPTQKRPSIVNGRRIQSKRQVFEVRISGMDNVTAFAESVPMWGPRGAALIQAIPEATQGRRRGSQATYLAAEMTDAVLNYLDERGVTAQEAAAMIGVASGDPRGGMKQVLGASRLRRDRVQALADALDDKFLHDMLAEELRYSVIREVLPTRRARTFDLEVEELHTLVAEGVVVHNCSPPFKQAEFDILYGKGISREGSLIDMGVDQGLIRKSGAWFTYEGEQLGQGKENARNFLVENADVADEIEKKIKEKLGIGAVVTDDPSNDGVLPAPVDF

[2] = target: T3, Sentrin-specific protease 8 (Homo sapiens, UniProt Q96LD8); format: functional
T3 sequence (Q96LD8 whole entry): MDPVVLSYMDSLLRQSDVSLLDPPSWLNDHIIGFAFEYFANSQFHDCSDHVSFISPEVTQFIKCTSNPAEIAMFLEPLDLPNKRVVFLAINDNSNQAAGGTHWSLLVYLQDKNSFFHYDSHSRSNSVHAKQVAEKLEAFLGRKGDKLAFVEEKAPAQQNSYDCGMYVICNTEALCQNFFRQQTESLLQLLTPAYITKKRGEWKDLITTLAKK

Fibrinogen beta chain [3] = target: T4, Fibrinogen beta chain (Homo sapiens, UniProt P02675); assay: Fluorescence polarization-based biochemical high throughput dose response assay to identify inhibitors that disrupt the binding of a cyclic peptide (Tn7) to the fibrin proteolytic product D-Dimer and fragment E complex [DD(E )].
[4] = target: Glutathione-S-transferase (Schistosoma japonicum, UniProt Q26513); assay: GST-antibody interaction or FRET quenching – biochemical, TR-FRET, artefact control for Vif-APOBEC3G degradation inhibitor project, dose response (AID 1117362); format: functional
[5] = target: T5, Replicative DNA helicase DnaB (Mycobacterium tuberculosis, UniProt P9WMR3); assay: DnaB intein splicing inhibitors, dose response, biochemical, cell-free fluorescence (AID 449749); format: functional
T5 sequence (P9WMR3 whole entry): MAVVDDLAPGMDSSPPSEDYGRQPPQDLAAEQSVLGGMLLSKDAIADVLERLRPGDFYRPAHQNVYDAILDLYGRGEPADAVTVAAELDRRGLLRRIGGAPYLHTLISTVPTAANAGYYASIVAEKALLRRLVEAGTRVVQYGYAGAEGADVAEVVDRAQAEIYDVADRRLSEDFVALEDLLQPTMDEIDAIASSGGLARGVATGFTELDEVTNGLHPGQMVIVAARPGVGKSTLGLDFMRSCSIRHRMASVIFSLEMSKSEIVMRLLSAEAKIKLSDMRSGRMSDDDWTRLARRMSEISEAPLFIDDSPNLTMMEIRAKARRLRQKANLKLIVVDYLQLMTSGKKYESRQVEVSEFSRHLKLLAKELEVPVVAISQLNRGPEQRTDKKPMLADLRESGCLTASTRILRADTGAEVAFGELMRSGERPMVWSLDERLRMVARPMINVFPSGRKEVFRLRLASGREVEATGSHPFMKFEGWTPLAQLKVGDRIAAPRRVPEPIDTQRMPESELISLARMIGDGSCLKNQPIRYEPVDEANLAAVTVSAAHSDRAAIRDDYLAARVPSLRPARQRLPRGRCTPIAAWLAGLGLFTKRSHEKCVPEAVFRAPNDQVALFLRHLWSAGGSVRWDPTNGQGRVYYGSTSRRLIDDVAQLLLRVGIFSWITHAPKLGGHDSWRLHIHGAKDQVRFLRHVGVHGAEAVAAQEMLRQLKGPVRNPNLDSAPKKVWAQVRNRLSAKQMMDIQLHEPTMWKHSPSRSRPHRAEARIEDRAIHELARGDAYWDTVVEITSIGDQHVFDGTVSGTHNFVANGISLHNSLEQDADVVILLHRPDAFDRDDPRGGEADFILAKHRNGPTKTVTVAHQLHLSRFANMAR

[6] = target: T3, Sentrin-specific protease 8; format: functional; remark: listed apart in the source
[7] = target: Histone-lysine N-methyltransferase NSD2 (Homo sapiens, UniProt O96028); format: biochemical
Fibrinogen beta chain [8] = target: T4, Fibrinogen beta chain; assay: Fluorescence polarization-based biochemical high throughput dose response assay to identify inhibitors that disrupt the binding of a cyclic peptide (Tn6) to the fibrin proteolytic product D-Dimer and fragment E complex [DD(E )].
HeLa = assay: viability loss in HeLa cells – cell-based, 24 h, cherry-picked samples, cytotoxicity control, dose response (AID 504726); format: functional; details: Homo sapiens;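 also: potency for cytotoxicity as loss of luminescence signal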
Streptococcus = assay: GAS UMAA2166 growth inhibition – luminescence, BacTiterGlo, counter-screen for streptokinase expression inhibitor project, dose response (AID 1915); format: functional, organism-based;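 also: potency for reduction of bacterial viability or growth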
[9] = target: G-protein coupled receptor 35 (Homo sapiens, UniProt Q9HC97); assay: inhibition of zaprinast-stimulated GPR35 beta-arrestin translocation – imaging, U2OS, beta-arrestin-GFP, zaprinast agonist, primary screen (AID 2058); format: functional;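 also: antagonist potency meaning inhibition of agonist-induced arrestin redistribution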
Streptokinase A = target: T6, Streptokinase A (Streptococcus pyogenes serotype M1, UniProt P10520); assay: viability-normalized secreted streptokinase activity reduction – plasminogen activation absorbance, OD405, dose response (AID 1914); format: functional, Streptococcus pyogenes M1 GAS;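 also: secreted streptokinase activity via plasminogen activation per viability signal from cell pellet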
T6 sequence (P10520 whole entry): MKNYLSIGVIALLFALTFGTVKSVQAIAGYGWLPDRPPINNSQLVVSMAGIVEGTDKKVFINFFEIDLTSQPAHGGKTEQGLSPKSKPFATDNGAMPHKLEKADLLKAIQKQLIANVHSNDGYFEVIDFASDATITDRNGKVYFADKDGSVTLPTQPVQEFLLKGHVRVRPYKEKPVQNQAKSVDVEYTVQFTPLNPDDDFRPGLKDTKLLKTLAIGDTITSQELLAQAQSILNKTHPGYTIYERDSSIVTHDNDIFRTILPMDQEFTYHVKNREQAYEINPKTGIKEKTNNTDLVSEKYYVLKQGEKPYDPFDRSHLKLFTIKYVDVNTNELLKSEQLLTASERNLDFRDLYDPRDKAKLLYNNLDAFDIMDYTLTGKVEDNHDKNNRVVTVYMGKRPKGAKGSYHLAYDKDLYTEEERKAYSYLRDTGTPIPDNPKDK

[10] = system: Streptococcus sp. 'group A'; assay: Streptococcus pyogenes SK(-)GAS viability under kanamycin – luminescence, BacTiterGlo, confirmation, counter-screen for streptokinase expression inhibitor project, dose response (AID 1900); format: functional, organism-based
Beta-galactosidase = Beta-galactosidase (Escherichia coli, UniProt Q8VNN2); assay: detection-enzyme interference by beta-gal modulators – biochemical, E. coli enzyme, set 3, artefact control for CCR6 antagonist project, dose response (AID 504712); format: functional
[11] = target: C-C chemokine receptor type 6 (Homo sapiens, UniProt P51684); assay: antagonism of CCR6 beta-arrestin recruitment – cell-based, luminescent beta-arrestin readout, dose response (AID 504728); format: functional
[12] = target: Nucleotide-binding oligomerization domain-containing protein 2 (Homo sapiens, UniProt Q9HC29); assay: PubChem AID 2334; format: functional
[13] = antiviral protection against BTV-induced cell death – arbovirus, BSR cells, confirmation (AID 1250); format: functional;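 also: protection from viral cytopathic effect measured as cell viability by ATP luminescence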
HEK293 [14] = assay: NOD2 signaling inhibitors in MDP-stimulated cells, cell-based, uHTS, luminescence (AID 2001); format: functional; details: Homo sapiens
[15] = target: T7, Nucleotide-binding oligomerization domain-containing protein 1 (Homo sapiens, UniProt Q9Y239); assay: blockers of NOD1 pathway activity – revised, SAR follow-up (AID 2333); format: functional
T7 sequence (Q9Y239 whole entry): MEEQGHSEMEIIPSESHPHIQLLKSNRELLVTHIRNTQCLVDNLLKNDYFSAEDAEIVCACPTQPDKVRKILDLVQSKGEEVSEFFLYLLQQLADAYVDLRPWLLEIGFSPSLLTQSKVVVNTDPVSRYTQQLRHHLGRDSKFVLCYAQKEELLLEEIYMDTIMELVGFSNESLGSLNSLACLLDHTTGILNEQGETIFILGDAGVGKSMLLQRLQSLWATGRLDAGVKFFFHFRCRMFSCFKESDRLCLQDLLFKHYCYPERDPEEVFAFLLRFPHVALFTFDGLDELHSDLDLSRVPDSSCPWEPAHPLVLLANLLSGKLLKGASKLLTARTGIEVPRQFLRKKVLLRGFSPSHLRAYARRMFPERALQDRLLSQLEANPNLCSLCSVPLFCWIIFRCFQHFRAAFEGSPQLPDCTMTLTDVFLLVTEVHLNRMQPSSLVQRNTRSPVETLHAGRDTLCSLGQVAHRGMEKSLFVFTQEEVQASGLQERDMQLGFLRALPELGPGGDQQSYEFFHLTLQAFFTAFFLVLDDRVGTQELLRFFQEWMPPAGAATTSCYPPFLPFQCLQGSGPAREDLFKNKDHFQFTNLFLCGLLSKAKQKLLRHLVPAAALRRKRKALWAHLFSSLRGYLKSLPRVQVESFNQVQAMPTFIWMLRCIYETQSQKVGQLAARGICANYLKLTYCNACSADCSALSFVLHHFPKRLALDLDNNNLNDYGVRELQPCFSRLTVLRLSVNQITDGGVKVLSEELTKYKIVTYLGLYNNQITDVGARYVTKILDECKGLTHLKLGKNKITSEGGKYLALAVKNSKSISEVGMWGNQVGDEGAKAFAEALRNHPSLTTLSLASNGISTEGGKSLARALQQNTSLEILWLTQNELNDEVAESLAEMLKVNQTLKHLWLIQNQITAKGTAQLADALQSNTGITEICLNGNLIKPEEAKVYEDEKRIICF

HEK293 [16] = assay: cells; details: Homo sapiens
Tumor necrosis factor = Tumor necrosis factor (Homo sapiens, UniProt P01375); assay: analog potency on TNFa NF-kB signaling – cell-based, revised, SAR follow-up (AID 2337); format: functional
HEK293 [17] = assay: cells; format: functional, cell-based; details: Homo sapiens
HEK293 [18] = assay: cells; format: functional, cell-based; details: Homo sapiens; remark: listed apart in the source
HEK293 [19] = assay: inhibition of NOD1-driven NF-kB reporter – cell-based, luminescence, uHTS, primary screen (AID 1578); format: functional; details: Homo sapiens

T4 sequence (P02675 whole entry, the tested form may be a part): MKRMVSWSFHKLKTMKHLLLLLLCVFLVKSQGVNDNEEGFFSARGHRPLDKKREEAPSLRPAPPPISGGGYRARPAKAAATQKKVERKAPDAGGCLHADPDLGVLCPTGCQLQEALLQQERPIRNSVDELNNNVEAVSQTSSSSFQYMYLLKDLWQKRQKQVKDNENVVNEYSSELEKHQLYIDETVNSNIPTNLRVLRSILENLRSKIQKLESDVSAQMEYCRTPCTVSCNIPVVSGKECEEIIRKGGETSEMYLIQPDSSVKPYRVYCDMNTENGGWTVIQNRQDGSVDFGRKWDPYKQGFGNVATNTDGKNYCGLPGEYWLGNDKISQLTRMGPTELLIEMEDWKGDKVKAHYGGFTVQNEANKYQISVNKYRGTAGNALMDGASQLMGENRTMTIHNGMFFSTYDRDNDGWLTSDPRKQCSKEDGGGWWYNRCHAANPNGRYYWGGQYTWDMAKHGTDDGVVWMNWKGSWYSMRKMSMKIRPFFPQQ
Sequence of G-protein coupled receptor 35 (Q9HC97 whole entry): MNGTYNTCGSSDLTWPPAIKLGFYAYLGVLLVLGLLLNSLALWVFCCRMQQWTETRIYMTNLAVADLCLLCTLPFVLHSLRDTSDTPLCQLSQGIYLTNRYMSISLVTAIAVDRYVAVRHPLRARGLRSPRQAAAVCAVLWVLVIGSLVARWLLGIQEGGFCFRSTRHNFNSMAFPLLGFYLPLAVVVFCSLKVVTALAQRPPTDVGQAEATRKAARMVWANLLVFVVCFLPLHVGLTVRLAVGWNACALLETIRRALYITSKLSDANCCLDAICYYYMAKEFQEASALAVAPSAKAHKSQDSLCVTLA
Sequence of C-C chemokine receptor type 6 (P51684 whole entry, the tested form may be a part): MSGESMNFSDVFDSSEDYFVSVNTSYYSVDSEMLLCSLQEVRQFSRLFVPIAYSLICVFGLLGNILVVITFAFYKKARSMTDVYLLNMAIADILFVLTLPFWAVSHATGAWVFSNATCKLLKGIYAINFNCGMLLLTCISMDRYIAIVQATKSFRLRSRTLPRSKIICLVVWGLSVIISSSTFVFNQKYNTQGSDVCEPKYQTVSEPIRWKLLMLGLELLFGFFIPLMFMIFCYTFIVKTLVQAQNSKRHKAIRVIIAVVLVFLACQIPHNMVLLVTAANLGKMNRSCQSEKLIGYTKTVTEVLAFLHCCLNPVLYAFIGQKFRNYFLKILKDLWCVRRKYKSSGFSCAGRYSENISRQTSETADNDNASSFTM
Sequence of 14-3-3 protein gamma (P61981 whole entry): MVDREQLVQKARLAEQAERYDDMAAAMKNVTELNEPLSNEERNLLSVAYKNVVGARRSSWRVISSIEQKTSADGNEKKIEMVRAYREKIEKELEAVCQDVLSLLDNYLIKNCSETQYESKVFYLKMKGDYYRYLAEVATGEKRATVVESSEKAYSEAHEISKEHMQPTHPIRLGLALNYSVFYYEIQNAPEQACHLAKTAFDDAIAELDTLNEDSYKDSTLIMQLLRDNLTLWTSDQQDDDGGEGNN
Sequence of Beta-galactosidase (Q8VNN2 whole entry): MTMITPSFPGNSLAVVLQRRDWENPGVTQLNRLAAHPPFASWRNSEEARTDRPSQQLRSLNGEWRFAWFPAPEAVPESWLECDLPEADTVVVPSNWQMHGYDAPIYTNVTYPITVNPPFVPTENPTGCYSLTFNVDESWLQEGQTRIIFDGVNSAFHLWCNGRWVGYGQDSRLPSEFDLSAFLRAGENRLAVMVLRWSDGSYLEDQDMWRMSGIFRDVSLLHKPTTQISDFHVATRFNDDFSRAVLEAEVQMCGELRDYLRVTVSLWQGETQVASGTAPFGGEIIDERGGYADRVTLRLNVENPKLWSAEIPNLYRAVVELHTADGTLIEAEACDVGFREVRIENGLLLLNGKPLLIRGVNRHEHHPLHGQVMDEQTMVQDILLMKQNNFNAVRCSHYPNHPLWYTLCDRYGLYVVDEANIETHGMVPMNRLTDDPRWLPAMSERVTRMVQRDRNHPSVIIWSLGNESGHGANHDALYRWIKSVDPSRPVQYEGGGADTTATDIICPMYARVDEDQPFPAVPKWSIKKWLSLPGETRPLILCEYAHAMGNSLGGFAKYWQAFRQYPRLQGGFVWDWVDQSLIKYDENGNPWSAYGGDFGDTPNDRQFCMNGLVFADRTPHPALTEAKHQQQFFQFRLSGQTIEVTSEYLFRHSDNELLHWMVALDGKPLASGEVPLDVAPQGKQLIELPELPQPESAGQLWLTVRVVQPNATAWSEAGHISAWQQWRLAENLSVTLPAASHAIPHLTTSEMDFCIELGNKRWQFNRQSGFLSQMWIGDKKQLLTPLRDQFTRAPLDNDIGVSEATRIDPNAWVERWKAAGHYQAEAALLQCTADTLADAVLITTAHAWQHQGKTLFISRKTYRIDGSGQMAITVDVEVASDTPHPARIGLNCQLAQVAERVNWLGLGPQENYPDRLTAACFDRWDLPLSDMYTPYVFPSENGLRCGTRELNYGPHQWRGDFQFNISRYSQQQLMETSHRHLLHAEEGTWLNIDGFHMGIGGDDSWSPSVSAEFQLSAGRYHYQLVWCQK
Sequence of Histone-lysine N-methyltransferase NSD2 (O96028 whole entry, the tested form may be a part): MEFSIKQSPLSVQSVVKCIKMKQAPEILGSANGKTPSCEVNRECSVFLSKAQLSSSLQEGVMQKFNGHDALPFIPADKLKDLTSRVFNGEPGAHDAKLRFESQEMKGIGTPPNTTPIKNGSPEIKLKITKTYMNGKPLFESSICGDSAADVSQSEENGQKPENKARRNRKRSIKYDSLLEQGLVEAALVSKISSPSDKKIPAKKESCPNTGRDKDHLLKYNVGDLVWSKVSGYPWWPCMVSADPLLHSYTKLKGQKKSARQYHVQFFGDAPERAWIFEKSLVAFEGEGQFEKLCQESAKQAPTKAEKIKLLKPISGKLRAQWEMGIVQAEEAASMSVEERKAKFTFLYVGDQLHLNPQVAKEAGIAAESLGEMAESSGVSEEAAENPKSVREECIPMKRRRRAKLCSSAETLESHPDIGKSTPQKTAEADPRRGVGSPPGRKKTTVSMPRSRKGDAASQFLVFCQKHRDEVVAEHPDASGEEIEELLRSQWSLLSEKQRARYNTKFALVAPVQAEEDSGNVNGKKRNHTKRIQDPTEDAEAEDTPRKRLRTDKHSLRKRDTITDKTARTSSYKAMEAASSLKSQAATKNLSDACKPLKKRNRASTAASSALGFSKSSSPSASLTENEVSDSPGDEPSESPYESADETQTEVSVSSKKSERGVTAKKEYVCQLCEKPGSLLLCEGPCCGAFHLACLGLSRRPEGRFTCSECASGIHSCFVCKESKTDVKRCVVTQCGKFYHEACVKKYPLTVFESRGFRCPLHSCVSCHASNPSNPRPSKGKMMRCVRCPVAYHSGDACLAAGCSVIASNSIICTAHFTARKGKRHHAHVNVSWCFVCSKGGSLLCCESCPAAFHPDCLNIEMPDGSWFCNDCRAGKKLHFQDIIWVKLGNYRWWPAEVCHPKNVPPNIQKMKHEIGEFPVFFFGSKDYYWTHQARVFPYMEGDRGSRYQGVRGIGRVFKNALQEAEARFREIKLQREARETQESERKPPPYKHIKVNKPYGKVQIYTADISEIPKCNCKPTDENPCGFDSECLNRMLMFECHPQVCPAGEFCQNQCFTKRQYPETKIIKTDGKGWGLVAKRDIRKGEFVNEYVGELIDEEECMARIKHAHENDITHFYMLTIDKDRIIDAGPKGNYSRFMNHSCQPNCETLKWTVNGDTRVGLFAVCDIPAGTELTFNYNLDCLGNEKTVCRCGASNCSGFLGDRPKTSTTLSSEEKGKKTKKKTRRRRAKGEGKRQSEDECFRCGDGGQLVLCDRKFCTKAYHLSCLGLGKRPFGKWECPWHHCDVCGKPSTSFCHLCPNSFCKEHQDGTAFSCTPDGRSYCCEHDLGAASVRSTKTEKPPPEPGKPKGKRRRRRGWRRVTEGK
Sequence of Nucleotide-binding oligomerization domain-containing protein 2 (Q9HC29 whole entry, the tested form may be a part): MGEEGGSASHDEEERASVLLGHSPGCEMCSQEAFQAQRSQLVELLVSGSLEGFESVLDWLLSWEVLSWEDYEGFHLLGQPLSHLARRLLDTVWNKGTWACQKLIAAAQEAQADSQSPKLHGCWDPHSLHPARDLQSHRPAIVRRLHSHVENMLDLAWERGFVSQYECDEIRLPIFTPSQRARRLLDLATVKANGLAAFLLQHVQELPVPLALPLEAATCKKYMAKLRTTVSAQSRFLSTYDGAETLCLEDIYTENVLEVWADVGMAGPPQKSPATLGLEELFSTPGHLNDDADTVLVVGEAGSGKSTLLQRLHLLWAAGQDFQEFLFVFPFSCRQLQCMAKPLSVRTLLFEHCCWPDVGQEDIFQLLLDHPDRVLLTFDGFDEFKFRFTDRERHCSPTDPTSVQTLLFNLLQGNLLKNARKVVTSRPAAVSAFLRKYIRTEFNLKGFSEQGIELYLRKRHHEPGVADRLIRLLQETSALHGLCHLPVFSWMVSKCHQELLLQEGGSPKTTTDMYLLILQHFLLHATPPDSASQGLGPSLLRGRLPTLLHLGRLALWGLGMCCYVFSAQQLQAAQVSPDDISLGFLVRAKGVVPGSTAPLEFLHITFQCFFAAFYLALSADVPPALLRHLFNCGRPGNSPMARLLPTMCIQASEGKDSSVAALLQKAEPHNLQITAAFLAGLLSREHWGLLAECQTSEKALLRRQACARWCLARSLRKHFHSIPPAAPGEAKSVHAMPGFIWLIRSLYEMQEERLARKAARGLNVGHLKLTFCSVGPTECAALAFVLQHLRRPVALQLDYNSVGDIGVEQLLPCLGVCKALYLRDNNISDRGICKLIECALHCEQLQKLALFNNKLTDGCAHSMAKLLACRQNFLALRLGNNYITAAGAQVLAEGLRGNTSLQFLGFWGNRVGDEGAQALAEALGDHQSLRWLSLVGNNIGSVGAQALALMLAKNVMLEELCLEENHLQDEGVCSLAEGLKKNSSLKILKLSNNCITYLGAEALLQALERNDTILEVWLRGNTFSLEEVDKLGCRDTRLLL

Cc1cc2c(N)cccc2nn1
IC50 (14-3-3 protein gamma): > 50 µM (not active)
IC50 [1]: 27.2 µM (inactive)
EC50 (Protein RecA): 54.6 µM (active)
IC50 [2]: 2.14 µM (active)
IC50 (Fibrinogen beta chain [3]): > 83.3 µM (inactive)
IC50 [4]: 52.6 µM (active)
AC50 [5]: > 380 µM (inactive)
IC50 [6]: 6 µM (active)
AC50 [7]: 4.77 µM (active)
IC50 (Fibrinogen beta chain [8]): > 83.3 µM (inactive)
AC50 (HeLa): > 350 µM (inactive)

CC(C)c1ccc(N2C(=O)/C(=C/N(C)C)SC2=S)cc1
EC50 (Streptococcus): 57 µM (active)
IC50 [9]: 0.835 µM (active)
EC50 (Streptokinase A): 5.29 µM (active)
EC50 [10]: 3.85 µM (active)

CCN1CCC(O)(/C=C/c2ccc(C)cc2)C(C(=O)/C=C/c2ccc(C)cc2)C1 (stereo unspecified)
IC50 (Beta-galactosidase): > 66.6 µM (inactive)
IC50 [11]: 22.8 µM (inactive)

CS(=O)(=O)c1ccc2nc(NC(=O)c3cccc(NS(=O)(=O)c4ccc(F)c(F)c4)c3)sc2c1
IC50 [12]: 18.4 µM (active)
IC50 [13]: 23.7 µM (active)
IC50 (HEK293 [14]): > 20 µM (inactive)
IC50 [15]: 3.16 µM (active)
IC50 (HEK293 [16]): > 20 µM (inactive)
IC50 (Tumor necrosis factor): 16.9 µM (active)
IC50 (HEK293 [17]): > 20 µM (inactive)
IC50 (HEK293 [18]): > 20 µM (inactive)
EC50 (HEK293 [19]): 5.5 µM (active)
